US12084472B2 (Ardelyx, Inc., priority 2015, dated 2024)

Biological target: T1, human TGR5 (Homo sapiens, UniProt Q8TDU6)
T1 construct: expressed in transfected cells; host or cells: HEK293
T1 sequence (Q8TDU6 1-330): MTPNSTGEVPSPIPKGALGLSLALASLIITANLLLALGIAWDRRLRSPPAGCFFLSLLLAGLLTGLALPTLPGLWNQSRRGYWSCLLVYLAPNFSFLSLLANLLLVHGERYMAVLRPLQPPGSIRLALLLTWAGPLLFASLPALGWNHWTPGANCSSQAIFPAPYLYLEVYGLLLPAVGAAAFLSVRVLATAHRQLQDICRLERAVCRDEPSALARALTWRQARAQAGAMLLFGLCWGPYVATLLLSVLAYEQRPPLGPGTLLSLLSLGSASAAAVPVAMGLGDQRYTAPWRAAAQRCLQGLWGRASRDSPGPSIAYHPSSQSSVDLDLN
Experiment: Cell-based TGR5 assay (cAMP generation, HTRF)
Settings: HEK293 cells stably transfected with human TGR5; cAMP by HTRF; 30 minutes at 37° C.; read-out: pEC50 Human TGR5 (converted)
Outline: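 First, compounds in 3-fold serial dilution were placed in HBSS with 10 mM HEPES pH 7.4 and 0.5 mM IBMX. Next, human TGR5-expressing HEK293 cells were added and incubated 30 min at 37° C. Finally, cAMP was detected by HTRF and pEC50 derived by logistic fitting.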

| SMILES | EC50 |
| --- | --- |
| CC(OCc1cc(S(=O)(=O)N(CCCCNC(=O)N[C@@H](CO)[C@@H](O)[C@H](O)[C@H](O)CO)C(C)C)ccc1Cl)c1cnccc1-c1ccccc1OC1CC1 (stereo partly drawn) [Compound I-752, 4-chloro-3-((1-(4-(2-cyclopropoxyphenyl)pyridin-3-yl)ethoxy)methyl)-N-isopropyl-N-(4-(3-((2S,3R,4S,5R)-1,3,4,5,6-pentahydroxyhexan-2-yl)ureido)butyl)benzenesulfonamide] | < 100 nM |
| O=C(CCCCc1cc(Cl)c(COC2(c3cnccc3-c3ccccc3OC3CC3)CC2)cc1Cl)N[C@@H](CN1CCOCC1)[C@@H](O)[C@H](O)[C@H](O)CO (stereo in doubt) [Compound I-160, 5-[2,5-dichloro-4-({1-[4-(2-cyclopropoxyphenyl)pyridin-3-yl]cyclopropoxy}methyl)phenyl]-N-[(2S,3R,4S,5R)-3,4,5,6-tetrahydroxy-1-(morpholin-4-yl)hexan-2-yl]pentanamide] | < 100 nM |
| COc1ccc2c(n1)CCN(S(=O)(=O)c1ccc(Cl)c(COC3(c4cnccc4-c4ccccc4OC4CC4)CC3)c1)C2 [Compound I-733, 6-[[4-chloro-3-([1-[4-(2-cyclopropoxyphenyl)pyridin-3-yl]cyclopropoxy]methyl)benzene]sulfonyl]-2-methoxy-5,6,7,8-tetrahydro-1,6-naphthyridine] | < 100 nM |
| COCCCN(CCCCc1cc(Cl)c(COC2(c3cnccc3-c3ccccc3OC3CC3)CC2)cc1Cl)C(=O)[C@@H](O)[C@@H](O)[C@H](O)[C@@H](O)CO [Compound I-212, (2S,3S,4R,5S)-N-{4-[2,5-dichloro-4-({1-[4-(2-cyclopropoxyphenyl)pyridin-3-yl]cyclopropoxy}methyl)phenyl]butyl}-2,3,4,5,6-pentahydroxy-N-(3-methoxypropyl)hexanamide] | < 100 nM |
| CN(CCCCc1cc(Cl)c(COC2(c3cnccc3-c3ccccc3OC3CC3)CC2)cc1Cl)C(=O)[C@@H](O)[C@@H](O)[C@H](O)[C@@H](O)CO (stereo in doubt) [Compound I-184, (2S,3S,4R,5S)-N-{4-[2,5-dichloro-4-({1-[4-(2-cyclopropoxyphenyl)pyridin-3-yl]cyclopropoxy}methyl)phenyl]butyl}-2,3,4,5,6-pentahydroxy-N-methylhexanamide] | < 100 nM |
| Clc1ccc(Cl)c(COC2(c3cnccc3-c3ccccc3OC3CCC3)CC2)c1 [Compound I-49, 4-(2-cyclobutoxyphenyl)-3-{1-[(2,5-dichlorophenyl)methoxy]cyclopropyl}pyridine] | < 100 nM |
| O=C([C@@H](O)[C@@H](O)[C@H](O)[C@@H](O)CO)N(CCCCSc1ccc(Cl)c(CNC2(c3cnccc3-c3ccccc3OC3CC3)CC2)c1)C1CCS(=O)(=O)CC1 [Compound I-581, (2S,3S,4R,5S)-N-[4-({4-chloro-3-[({1-[4-(2-cyclopropoxyphenyl)pyridin-3-yl]cyclopropyl}amino)methyl]phenyl}sulfanyl)butyl]-N-(1,1-dioxo-1λ^6-thian-4-yl)-2,3,4,5,6-pentahydroxyhexanamide] | < 100 nM |
| CCC(=O)N(CCCCc1cc(Cl)c(COC2(c3cnccc3-c3ccccc3OC3CC3)CC2)cc1Cl)C[C@H](O)[C@@H](O)[C@H](O)[C@H](O)CO [Compound I-73, N-{4-[2,5-dichloro-4-({1-[4-(2-cyclopropoxyphenyl)pyridin-3-yl]cyclopropoxy}methyl)phenyl]butyl}-N-[(2S,3R,4R,5R)-2,3,4,5,6-pentahydroxyhexyl]propanamide] | < 100 nM |
| CC(=O)N(CCCCSc1ccc(Cl)c(COC2(c3cnccc3-c3ccccc3OC3CC3)CC2)c1)C[C@H](O)[C@@H](O)[C@H](O)[C@H](O)CO [Compound I-501, N-(4-{[4-chloro-3-({1-[4-(2-cyclopropoxyphenyl)pyridin-3-yl]cyclopropoxy}methyl)phenyl]sulfanyl}butyl)-N-[(2S,3R,4R,5R)-2,3,4,5,6-pentahydroxyhexyl]acetamide] | < 100 nM |
| CN(CC(=O)O)CC(=O)N(CCCCc1cc(Cl)c(COC2(c3cnccc3-c3ccccc3OC3CC3)CC2)cc1Cl)C[C@H](O)[C@@H](O)[C@H](O)[C@H](O)CO [Compound I-195, 2-{[({4-[2,5-dichloro-4-({1-[4-(2-cyclopropoxyphenyl)pyridin-3-yl]cyclopropoxy}methyl)phenyl]butyl}[(2S,3R,4R,5R)-2,3,4,5,6-pentahydroxyhexyl]carbamoyl)methyl](methyl)amino}acetic acid] | 126 to 1000 nM |
| CN(CCCNC[C@H](O)[C@@H](O)[C@H](O)[C@H](O)C(=O)O)C(=O)CCCCc1cc(Cl)c(COC2(c3cnccc3-c3ccccc3OC3CC3)CC2)cc1Cl [Compound I-180, (2S,3S,4R,5S)-6-[(3-{5-[2,5-dichloro-4-({1-[4-(2-cyclopropoxyphenyl)pyridin-3-yl]cyclopropoxy}methyl)phenyl]-N-methylpentanamido}propyl)amino]-2,3,4,5-tetrahydroxyhexanoic acid] | < 100 nM |
| O=C1NCCN1CCN(CCCCSc1ccc(Cl)c(COC2(c3cnccc3-c3ccccc3OC3CC3)CC2)c1)C(=O)[C@@H](O)[C@@H](O)[C@H](O)[C@@H](O)CO [Compound I-517, (2S,3S,4R,5S)-N-(4-{[4-chloro-3-({1-[4-(2-cyclopropoxyphenyl)pyridin-3-yl]cyclopropoxy}methyl)phenyl]sulfanyl}butyl)-2,3,4,5,6-pentahydroxy-N-[2-(2-oxoimidazolidin-1-yl)ethyl]hexanamide] | < 100 nM |
| O=C(CCCCc1cc(Cl)c(COC2(c3cnccc3-c3ccccc3OC3CC3)CC2)cc1Cl)N(Cc1ccccc1)C[C@@H](O)[C@H](O)[C@H](O)[C@H](O)CO [Compound I-120, N-benzyl-5-(2,5-dichloro-4-((1-(4-(2-cyclopropoxyphenyl)pyridin-3-yl)cyclopropoxy)methyl)phenyl)-N-((2R,3S,4R,5R)-2,3,4,5,6-pentahydroxyhexyl)pentanamide] | 126 to 1000 nM |

The next lines start with the values.

| EC50 | SMILES |
| --- | --- |
| 126 to 1000 nM | O=C(CCCSc1ccc(Cl)c(COC2(c3cnccc3-c3ccccc3OC3CC3)CC2)c1)N(CCCCO)C[C@H](O)[C@@H](O)[C@H](O)[C@H](O)CO [Compound I-692, 4-{[4-chloro-3-({1-[4-(2-cyclopropoxyphenyl)pyridin-3-yl]cyclopropoxy}methyl)phenyl]sulfanyl}-N-(4-hydroxybutyl)-N-[(2S,3R,4R,5R)-2,3,4,5,6-pentahydroxyhexyl]butanamide] |
| < 100 nM | CC(CCCCN(CCOCCO)C(=O)NC[C@H](O)[C@@H](O)[C@H](O)[C@H](O)CO)c1ccc(Cl)c(CNC2(c3cnccc3-c3ccccc3OC3CC3)CC2)c1 (stereo partly drawn) [Compound I-270, 1-(5-{4-chloro-3-[({1-[4-(2-cyclopropoxyphenyl)pyridin-3-yl]cyclopropyl}amino)methyl]phenyl}hexyl)-1-[2-(2-hydroxyethoxy)ethyl]-3-[(2S,3R,4R,5R)-2,3,4,5,6-pentahydroxyhexyl]urea] |
| < 100 nM | CC(CCCC(=O)N1CCN(CCNC(=O)NC[C@H](O)[C@@H](O)[C@H](O)[C@H](O)CO)CC1)c1ccc(Cl)c(CNC2(c3cnccc3-c3ccccc3OC3CC3)CC2)c1 (stereo partly drawn) [Compound I-323, 1-{2-[4-(5-{4-chloro-3-[({1-[4-(2-cyclopropoxyphenyl)pyridin-3-yl]cyclopropyl}amino)methyl]phenyl}hexanoyl)piperazin-1-yl]ethyl}-3-[(2S,3R,4R,5R)-2,3,4,5,6-pentahydroxyhexyl]urea] |
| 126 to 1000 nM | Cc1ccc(C(C)CCCC(=O)N(CCC(=O)N(C)C)C[C@H](O)[C@@H](O)[C@H](O)[C@H](O)CO)cc1CNC1(c2cnccc2-c2ccccc2OC2CC2)CC1 (stereo partly drawn) [Compound I-366, 5-{3-[({1-[4-(2-cyclopropoxyphenyl)pyridin-3-yl]cyclopropyl}amino)methyl]-4-methylphenyl}-N-[2-(dimethylcarbamoyl)ethyl]-N-[(2S,3R,4R,5R)-2,3,4,5,6-pentahydroxyhexyl]hexanamide] |
| < 100 nM | CC(CCCC(=O)N(CCS(C)(=O)=O)C[C@@H](O)[C@H](O)[C@@H](O)[C@@H](O)CO)c1ccc(Cl)c(CNC2(c3cnccc3-c3ccccc3OC3CC3)CC2)c1 (stereo partly drawn) [Compound I-346, 5-{4-chloro-3-[({1-[4-(2-cyclopropoxyphenyl)pyridin-3-yl]cyclopropyl}amino)methyl]phenyl}-N-(2-methanesulfonylethyl)-N-[(2R,3S,4S,5S)-2,3,4,5,6-pentahydroxyhexyl]hexanamide] |
| < 100 nM | COCCCN(CCCC(C)c1ccc(Cl)c(CNC2(c3cnccc3-c3ccccc3OC3CC3)CC2)c1)C(=O)[C@@H](O)[C@@H](O)[C@H](O)[C@@H](O)CO (stereo partly drawn) [Compound I-284, (2S,3S,4R,5S)-N-(4-{4-chloro-3-[({1-[4-(2-cyclopropoxyphenyl)pyridin-3-yl]cyclopropyl}amino)methyl]phenyl}pentyl)-2,3,4,5,6-pentahydroxy-N-(3-methoxypropyl)hexanamide] |
| 126 to 1000 nM | O=C(NCCCCc1ccc(Cl)c(CNC2(c3cnccc3-c3ccccc3OC3CC3)CC2)c1)NC[C@H](O)[C@@H](O)[C@H](O)[C@H](O)CO (stereo in doubt) [Compound I-241, 1-(4-{4-chloro-3-[({1-[4-(2-cyclopropoxyphenyl)pyridin-3-yl]cyclopropyl}amino)methyl]phenyl}butyl)-3-[(2S,3R,4R,5R)-2,3,4,5,6-pentahydroxyhexyl]urea] |
